Assay results published in ChEMBL document CHEMBL3244211, “5-Carboxamido-4-amino-3-isoxazolidone, and asparagine analogue” (J Med Chem, 1978).
Active and inactive are the calls of the source. The calls are words filed in the database; no cut-off is given here.

Assays:
[1] = test system: L1210; experiment: Antitumor activity against mouse L1210 cells allografted in BDF1 mouse assessed as increase of host survival time at 100 mg/kg, ip; assay type: functional
[2] = test system: P388; experiment: Antitumor activity against mouse P388 cells allografted in BDF1 mouse assessed as increase of host survival time at 200 mg/kg, ip qd for 9 days; assay type: functional
[3] = test system: Mus musculus; experiment: Toxicity in mouse P388 cells allografted BDF1 mouse assessed as mortality at 200 mg/kg, ip qd for 9 days; assay type: organism-based; parameters: dose 200 mg/kg, route intraperitoneal; conditions: in vivo, 216 h
[4] = target: T1, Asparagine synthetase [glutamine-hydrolyzing] (Rattus norvegicus) (UniProt P49088); experiment: Inhibition of asparagine synthetase in rat Novikoff hepatoma
T1 sequence (whole entry): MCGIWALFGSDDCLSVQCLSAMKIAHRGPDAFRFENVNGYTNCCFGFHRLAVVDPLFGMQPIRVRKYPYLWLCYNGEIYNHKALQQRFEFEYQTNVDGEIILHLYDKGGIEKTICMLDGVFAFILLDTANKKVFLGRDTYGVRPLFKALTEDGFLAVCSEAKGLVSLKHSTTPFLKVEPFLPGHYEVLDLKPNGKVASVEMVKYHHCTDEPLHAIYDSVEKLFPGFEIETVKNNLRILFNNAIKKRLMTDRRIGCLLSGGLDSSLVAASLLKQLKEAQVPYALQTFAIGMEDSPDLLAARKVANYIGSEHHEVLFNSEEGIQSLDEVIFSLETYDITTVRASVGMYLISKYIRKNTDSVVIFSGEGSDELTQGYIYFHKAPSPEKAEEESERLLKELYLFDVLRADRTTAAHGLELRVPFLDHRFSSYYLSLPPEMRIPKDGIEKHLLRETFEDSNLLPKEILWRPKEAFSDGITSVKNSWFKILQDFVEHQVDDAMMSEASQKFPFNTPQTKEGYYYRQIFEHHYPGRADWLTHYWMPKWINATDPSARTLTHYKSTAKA

SMILES | Activity [1] | Activity [2] | Activity [3] | inhibition [4] | Activity ([1]; route intraperitoneal) | T/C ([2]; route intraperitoneal)
NC(=O)[C@H]1ONC(=O)[C@@H]1N (relative stereo) | inactive | inactive | Non-toxic | inactive | – | –
O=C(NO)[C@H]1N[C@@H]1C(=O)NO (relative stereo) | – | – | Non-toxic | – | 13% | 128%
